Results published in US20160022733A1, “NOVEL FORMULA OF IRON BASED NANOCOMPOSITES FOR RAPID AND EFFICIENT TREATMENT OF IRON DEFICIENCY ANEMIA” (NANOTECH FOR PHOTOELECTRONICS RESEARCH, priority 2013, published 2016).

System: Life-threatening iron-deficiency anemic rats
Experiment: Hemoglobin concentration after single oral dose in rats with induced life-threatening hemorrhagic anemia
Format: in vivo, Albino rats of the Wisconsin Holtzman strain
Details: Ferric Chloride given orally to anemic rats (group 4)
Protocol: Part II: Animal Trial Experimental Design • Five weeks old Albino rats of the Wisconsin Holtzman strain, weighing 150-160 g, were divided into six, as showing below Rats of groups 1-5 were exposed daily to blood withdrawal from inner canthus of eyes. The hemoglobin concentration of collected blood samples in heparinized tubes was measured by colorimetric method using commercially available kit (Drabkin's solution). […] Rats of control group were not exposed to any blood withdrawal. After induction of Life-threatening hemorrhagic anemia, all rats were fasted for 6 hours prior their oral administration with different treatments and doses. […] Two control groups were allocated for this pilot experiment; group 5 where rats were exposed to Life-threatening hemorrhagic anemia and treated with the vitamins mixture dissolved with Nano sized magnetite (Ascorbic, folic and nicotinic acids), and group 6 where rats were non-anemic and administered distilled water (Table 1). Rats of different groups were left for 3 days after oral administration of different treatments, fed ad libitum on balanced diet containing iron and clean tap water. Blood samples were collected on 4th and 7th day after dosing and Hb concentration was measured using colorimetric method.

SMILES: [Cl][Fe]([Cl])[Cl] [Ferric Chloride]
- Effect on Hb. concentration: corrected the Hb. concentration but achieved neither the levels in Nano-sized magnetite groups nor the level in control non-anemic rats
